Test results reported in article PMC4979060, “Structural basis of metallo-β-lactamase, serine-β-lactamase and penicillin-binding protein inhibition by cyclic boronates” (Nature Communications, 2016).
Converted amounts (≈) assume the structure as drawn. Where two headings read alike, the source gives them in different places.

How the values were obtained:
[1] = test system: K. pneumoniae Ecl8 pSU18:NDM-1; assay: MIC by broth microdilution and checkerboard; assay type: cell-based; details: for MIC: Klebsiella pneumoniae
From the text: (§1) Bacterial strains: E. coli ATCC 25922 (ref. [35]) and K. pneumoniae NCTC 5055 (ref. [36]) were used as reference strains. K. pneumoniae Ecl8 (ref. [16]) and its ramR knock-out[37] were used as previously described. K. pneumoniae strain IR8 (ref. [40]), and E. coli strains IR10 and IR60 (ref. [17]) were generous gifts of Prof. T.R. Walsh. Plasmid pSU18:NDM-1 contains the complete blaNDM-1 open reading frame, together with its promoter, cloned into plasmid pSU18 (ref. [41]). The recombinant plasmid was made by PCR amplifying the blaNDM-1 gene and surrounding sequences from E. coli IR10 with primers NDM1F 5′- […] -3′ and NDM1R 5′- GGCGATGACAGCATCATC -3′, TA cloning the amplicon into pCR2.1 TOPO (Invitrogen) and subcloning into pSU18 using BamHI and XbaI.
(§2) MIC values were determined by broth microdilution, in triplicate, in cation-adjusted Mueller Hinton broth (Sigma) according to the Clinical Laboratory Standards Institute (CLSI) guidelines. Experiments were carried out in microtitre plates (Corning) containing the medium plus meropenem (Sequoia Research Products, Pangbourne, UK) and/or inhibitor 2 as appropriate. Chloramphenicol (20 μg ml^−1) was included in assays of strains (K. pneumoniae Ecl8 and derivative) that carried pSU18 plasmids or derivatives (pSU18:NDM-1) to ensure maintenance of plasmids throughout. Inhibitor 2 was dissolved in DMSO to 100 mg ml^−1 and diluted in broth. The final concentration of DMSO in the assays was kept constant at 0.01% (experiments using 10 μg ml^−1 inhibitor) or 0.03% (experiments using 25 μg ml^−1 inhibitor). Plates were incubated overnight at 37 °C for 18–24 h and absorbance at 600 nm read using a Polarstar Omega (BMG LabTech) plate reader.

K. pneumoniae IR8 = assay: microbe, parasite or virus in culture; assay type: cell-based; details: Klebsiella pneumoniae, K. pneumoniae IR8
From the text: as §1, §2

E. coli IR10 = assay: MIC by broth microdilution; assay type: cell-based; details: Escherichia coli
From the text: as §1, §2

E. coli IR60 = assay: MIC by broth microdilution; assay type: cell-based; details: Escherichia coli
From the text: as §1, §2

[2] = test system: K pneumoniae Ecl8 ΔramR pSU18:NDM-1; assay: MIC by broth microdilution; assay type: cell-based; details: Ecl8 ΔramR pSU18:NDM-1; for MIC: Klebsiella pneumoniae; for Meropenem MIC (25 μg ml^−1 2): with 25 μg ml^−1 2
From the text: as §1, §2

[3] = test system: K pneumoniae Ecl8 ΔramR pSU18; assay: MIC by broth microdilution; assay type: cell-based; details: Klebsiella pneumoniae
From the text: as §1, §2

K. pneumoniae Ecl8 pSU18 = assay: MIC by broth microdilution; assay type: cell-based; details: Klebsiella pneumoniae
From the text: as §1, §2

BcII = molecular target: T1, BcII (Bacillus cereus, UniProt P04190); assay: Fluorogenic β-lactamase inhibition assay (FC-5 substrate), BcII; assay type: biochemical
T1 construct: made in house; host or cells: E. coli
T1 sequence (P04190 31-257): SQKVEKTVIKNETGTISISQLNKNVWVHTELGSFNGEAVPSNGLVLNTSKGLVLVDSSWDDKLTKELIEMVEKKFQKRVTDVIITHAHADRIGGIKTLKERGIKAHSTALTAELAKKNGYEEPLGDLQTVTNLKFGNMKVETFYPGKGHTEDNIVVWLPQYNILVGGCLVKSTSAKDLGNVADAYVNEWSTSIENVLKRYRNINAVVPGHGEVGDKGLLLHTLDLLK
Method: (§3) Kinetic and inhibition analyses, and ^19F NMR studies[10] against bacterial β-lactamases were performed as described. The FC-5 cephalosporin[9] was used as substrate for BcII, VIM-2, IMP-1, NDM-1, SPM-1, TEM-1 and OXA-10, meropenem[28] for CphA and nitrocefin[34] for PBP 3 and PBP 5.
(§4) In brief IC50 values were determined by preincubation of the appropriate amount of enzyme with the cyclic boronates in the assay buffers for 10 min at room temperature prior to the initiation of the assay by the addition of the appropriate substrate. The enzyme concentrations used are the following: 1 nM BcII, 100 nM VIM-2, 10 nM IMP-1, 10 nM NDM-1, 1 nM SPM-1, 1 nM TEM-1, 1 nM OXA-10, 2.5 nM CphA, 4 μM PBP 3 and 5 μM PBP 5; note that the final concentrations are stated. The assay buffers used are the following: 50 mM HEPES, pH 7.2 supplemented with 1 μg BSA, 1 μg ZnSO4 and 0.01% Triton for BcII, VIM-2, IMP-1, NDM-1 and SPM-1, 15 mM MES, pH 6.5 for CphA, 50 mM HEPES, pH 7.2 supplemented with 200 mM NaCl and 0.01% Triton 100 for TEM-1, 100 mM sodium phosphate, pH 7.2 supplemented with 50 mM NaHCO3 and 0.01% Triton 100 for OXA-10 and 50 mM HEPES, pH 7.2 supplemented with 200 mM NaCl and 0.01% Triton 100 for PBP 3 and PBP 5. The amount of substrates used is the following: 5 μM for BcII, VIM-2, IMP-1, NDM-1 and SPM-1, 10 μM for TEM-1 and OXA-10, 125 μM for CphA and 25 μM for PBP 3 and PBP 5; note that the final concentrations are stated.
(§5) The experiments were performed using a PHERAstar FS microplate reader (BMG Labtech) at room temperature (24–25 °C). All enzymes and inhibitors were prepared in the specific assay buffer. The kinetic values in this study are the means from at least three independent measurements; at least nine different concentrations of the inhibitor were used to determine the kinetic parameters (IC50). The IC50 values were determined using the software package Graph Prism 5.

VIM-2 = molecular target: T2, VIM-2 (Escherichia coli, UniProt Q5U7L7); assay: Fluorogenic β-lactamase inhibition assay (FC-5 substrate), VIM-2; assay type: biochemical
T2 construct: made in house; host or cells: E. coli
Method: as §3, §4, §5

IMP-1 = molecular target: T3, IMP-1 (Serratia marcescens, UniProt P52699); assay: Fluorogenic β-lactamase inhibition assay (FC-5 substrate), IMP-1; assay type: biochemical
T3 construct: made in house; host or cells: E. coli
T3 sequence (P52699 19-246, looked up, species assumed): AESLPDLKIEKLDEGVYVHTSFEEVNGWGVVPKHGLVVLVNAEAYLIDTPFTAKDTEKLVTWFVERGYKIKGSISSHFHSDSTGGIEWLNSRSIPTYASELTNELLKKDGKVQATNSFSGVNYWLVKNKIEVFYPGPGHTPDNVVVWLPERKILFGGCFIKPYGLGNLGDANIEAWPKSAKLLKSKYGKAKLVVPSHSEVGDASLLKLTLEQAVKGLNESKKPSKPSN
Method: as §3
In brief IC50 values were determined by preincubation of the appropriate amount of enzyme with the cyclic boronates in the assay buffers for 10 min at room temperature prior to the initiation of the assay by the addition of the appropriate substrate. The enzyme concentrations used are the following: 1 nM BcII, 100 nM VIM-2, 10 nM IMP-1, 10 nM NDM-1, 1 nM SPM-1, 1 nM TEM-1, 1 nM OXA-10, 2.5 nM CphA, 4 μM PBP 3 and 5 μM PBP 5; note that the final concentrations are stated. […]
The experiments were performed using a PHERAstar FS microplate reader (BMG Labtech) at room temperature (24–25 °C). […] The IC50 values were determined using the software package Graph Prism 5.

NDM-1 = molecular target: T4, NDM-1 (Klebsiella pneumoniae, UniProt C7C422); assay: Fluorogenic β-lactamase inhibition assay (FC-5 substrate), NDM-1; assay type: biochemical
T4 construct: made in house; host or cells: E. coli
T4 sequence (C7C422 29-270, looked up, species assumed): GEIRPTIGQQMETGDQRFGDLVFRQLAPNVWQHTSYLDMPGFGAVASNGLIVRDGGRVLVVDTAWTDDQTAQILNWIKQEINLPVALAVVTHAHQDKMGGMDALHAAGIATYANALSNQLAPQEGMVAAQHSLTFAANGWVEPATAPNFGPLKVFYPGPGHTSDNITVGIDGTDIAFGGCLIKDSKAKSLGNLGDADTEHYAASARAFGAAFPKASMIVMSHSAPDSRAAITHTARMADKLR
Method: as §3, §4, §5

SPM-1 = SPM-1 (Pseudomonas aeruginosa, UniProt Q8G9Q0); assay: Fluorogenic β-lactamase inhibition assay (FC-5 substrate), SPM-1; assay type: biochemical
SPM-1, sequence (Q8G9Q0 entry or part of it): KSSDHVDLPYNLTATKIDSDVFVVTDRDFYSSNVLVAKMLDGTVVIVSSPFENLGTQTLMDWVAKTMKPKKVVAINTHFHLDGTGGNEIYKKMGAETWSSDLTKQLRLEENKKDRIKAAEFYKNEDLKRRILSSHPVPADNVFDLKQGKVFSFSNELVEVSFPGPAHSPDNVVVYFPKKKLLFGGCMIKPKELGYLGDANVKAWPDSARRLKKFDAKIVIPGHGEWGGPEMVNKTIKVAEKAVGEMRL
Method: as §3, §4, §5

CphA = molecular target: T5, CphA (Aeromonas hydrophila, UniProt P26918); assay: B2 MBL inhibition assay (meropenem substrate), CphA; assay type: biochemical, Aeromonas hydrophilia
T5 construct: made in house; host or cells: E. coli
T5 sequence (P26918 28-254): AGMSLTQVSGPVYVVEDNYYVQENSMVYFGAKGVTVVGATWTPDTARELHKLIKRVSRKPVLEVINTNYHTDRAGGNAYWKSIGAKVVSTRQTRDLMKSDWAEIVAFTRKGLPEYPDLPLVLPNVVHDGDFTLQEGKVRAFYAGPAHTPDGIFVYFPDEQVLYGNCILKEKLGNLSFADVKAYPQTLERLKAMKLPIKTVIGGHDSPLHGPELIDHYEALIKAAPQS
Method: as §3, §4, §5

TEM-1 = molecular target: T6, TEM-1 (Escherichia coli, UniProt P62593); assay: Fluorogenic β-lactamase inhibition assay (FC-5 substrate), TEM-1; assay type: biochemical
T6 construct: made in house; host or cells: E. coli
T6 sequence (P62593 24-286 limits assumed): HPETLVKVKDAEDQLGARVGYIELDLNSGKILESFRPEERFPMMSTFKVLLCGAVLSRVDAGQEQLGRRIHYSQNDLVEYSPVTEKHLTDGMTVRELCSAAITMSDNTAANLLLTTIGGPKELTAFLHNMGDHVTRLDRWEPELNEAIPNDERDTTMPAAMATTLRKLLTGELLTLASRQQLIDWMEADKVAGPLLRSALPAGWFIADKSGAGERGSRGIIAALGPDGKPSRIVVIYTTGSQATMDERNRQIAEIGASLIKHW
Method: as §3, §4, §5

OXA-10 = molecular target: T7, OXA-10 (Pseudomonas aeruginosa, UniProt P14489); assay: Fluorogenic β-lactamase inhibition assay (FC-5 substrate), OXA-10; assay type: biochemical
T7 construct: made in house; host or cells: E. coli
T7 sequence (P14489 20-266, species assumed): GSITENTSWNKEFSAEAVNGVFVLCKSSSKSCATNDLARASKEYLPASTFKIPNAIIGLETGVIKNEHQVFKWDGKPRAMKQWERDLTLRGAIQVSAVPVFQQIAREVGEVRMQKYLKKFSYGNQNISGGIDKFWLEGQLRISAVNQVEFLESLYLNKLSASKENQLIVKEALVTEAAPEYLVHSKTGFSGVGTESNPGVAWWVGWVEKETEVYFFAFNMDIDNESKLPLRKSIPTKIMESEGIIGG
Method: as §3, §4, §5

PBP 3 = molecular target: T8, PBP 3 (Pseudomonas aeruginosa, UniProt G3XD46); assay: PBP inhibition assay (nitrocefin substrate), PBP 3; assay type: biochemical; details: NI = no inhibition at 100 μM, read-out: IC50 (μM)/pIC50 (converted)
T8 construct: made in house; host or cells: E. coli
T8 sequence (G3XD46 whole entry): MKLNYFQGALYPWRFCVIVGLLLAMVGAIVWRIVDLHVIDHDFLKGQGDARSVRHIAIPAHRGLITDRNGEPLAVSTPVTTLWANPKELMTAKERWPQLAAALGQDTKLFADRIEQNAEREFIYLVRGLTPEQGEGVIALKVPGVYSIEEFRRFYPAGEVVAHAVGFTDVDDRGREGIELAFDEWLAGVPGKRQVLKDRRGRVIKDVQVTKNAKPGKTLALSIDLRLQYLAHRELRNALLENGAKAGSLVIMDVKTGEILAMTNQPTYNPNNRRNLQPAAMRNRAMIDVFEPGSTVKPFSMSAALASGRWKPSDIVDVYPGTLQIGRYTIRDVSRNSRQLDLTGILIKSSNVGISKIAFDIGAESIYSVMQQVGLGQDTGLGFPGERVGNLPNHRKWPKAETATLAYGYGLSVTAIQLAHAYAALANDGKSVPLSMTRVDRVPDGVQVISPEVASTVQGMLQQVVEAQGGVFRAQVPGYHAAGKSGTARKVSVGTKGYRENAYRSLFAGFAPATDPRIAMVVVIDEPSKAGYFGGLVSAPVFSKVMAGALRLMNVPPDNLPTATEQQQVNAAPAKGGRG
Method: as §3, §4, §5

HEK293 cells = assay: Cytotoxicity assay (MTS); assay type: cell-based; details: human HEK293 cells, concentrations up to 100 μM, 24 h
Method: HEK293 cells were seeded (2,000 per well) in normal DMEM in 96-well plates.[34] After 24 h, wells were dosed with titrated concentration of compounds in 1% dimethyl sulphoxide (DMSO)—final volume of media about 100 μl. Following a further 24 h incubation period, 20 μl tetrazolium (MTS, CellTiter96Aqueous One Solution (Promega)) was added to the media in each well. The plate was incubated at 37 °C, 5% CO2 for 4 h in the dark before absorbance was read at 490 nm to determine cell proliferation values.

C[C@@H](O)[C@H]1C(=O)N2C(C(=O)O)=C(S[C@@H]3CN[C@H](C(=O)N(C)C)C3)[C@H](C)[C@H]12 [Meropenem, meropenem]
MIC ([1]; read-out: Meropenem MIC (10 μg ml^−1 2), with 10 μg ml^−1 2, Ecl8 pSU18:NDM-1): 8 µg/mL
MIC ([1]; read-out: Meropenem MIC (25 μg ml^−1 2), with 25 μg ml^−1 2, Ecl8 pSU18:NDM-1): < 8 µg/mL
MIC ([1]; read-out: Meropenem MIC, checkerboard, 2 at 0 μg mL-1): 128 µg/mL
MIC ([1]; read-out: Meropenem MIC, checkerboard, 2 at 0.5 μg mL-1): 64 µg/mL
MIC ([1]; read-out: Meropenem MIC, checkerboard, 2 at 1 μg mL-1): 32 µg/mL
MIC ([1]; read-out: Meropenem MIC, checkerboard, 2 at 2 μg mL-1): 32 µg/mL
MIC ([1]; read-out: Meropenem MIC, checkerboard, 2 at 4 μg mL-1): 16 µg/mL
MIC ([1]; read-out: Meropenem MIC, checkerboard, 2 at 8 μg mL-1): 8 µg/mL
MIC ([1]; read-out: Meropenem MIC, checkerboard, 2 at 16 μg mL-1): 4 µg/mL
MIC ([1]; read-out: Meropenem MIC, checkerboard, 2 at 32 μg mL-1): 2 µg/mL
MIC ([1]; read-out: Meropenem MIC, checkerboard, 2 at 64 μg mL-1): ≤ 1 µg/mL
MIC ([1]; read-out: Meropenem MIC, meropenem alone, Ecl8 pSU18:NDM-1): > 128 µg/mL
Meropenem MIC (25 μg ml^−1 2) ([1]; with 25 μg ml^−1 2, Ecl8 pSU18:NDM-1): 4 µg/mL
MIC (K. pneumoniae IR8; meropenem alone, read-out: Meropenem MIC): 128 µg/mL (≈ 334 µM)
MIC (K. pneumoniae IR8; with 10 μg ml^−1 2, read-out: Meropenem MIC (10 μg ml^−1 2)): 32 µg/mL (≈ 83.4 µM)
MIC (K. pneumoniae IR8; with 25 μg ml^−1 2, read-out: Meropenem MIC (25 μg ml^−1 2)): 16 µg/mL (≈ 41.7 µM)
MIC (E. coli IR10; IR10, read-out: Meropenem MIC): 128 µg/mL (≈ 334 µM)
MIC (E. coli IR10; IR10, read-out: Meropenem MIC (10 μg ml^−1 2)): 8 µg/mL (≈ 20.9 µM)
MIC (E. coli IR10; IR10, read-out: Meropenem MIC (25 μg ml^−1 2)): 2 µg/mL (≈ 5.22 µM)
MIC (E. coli IR60; IR60, read-out: Meropenem MIC): 64 µg/mL (≈ 167 µM)
MIC (E. coli IR60; IR60, read-out: Meropenem MIC (10 μg ml^−1 2)): 16 µg/mL (≈ 41.7 µM)
MIC (E. coli IR60; IR60, read-out: Meropenem MIC (25 μg ml^−1 2)): 16 µg/mL (≈ 41.7 µM)
MIC ([2]; read-out: Meropenem MIC (10 μg ml^−1 2), with 10 μg ml^−1 2): 16 µg/mL (≈ 41.7 µM)
MIC ([2]; read-out: Meropenem MIC, meropenem alone): > 128 µg/mL
Meropenem MIC (25 μg ml^−1 2) [2]: 2 µg/mL
Meropenem MIC (25 μg ml^−1 2) ([2]; listed as meropenem): < 8 µg/mL
MIC ([3]; read-out: Meropenem MIC): ≤ 0.25 µg/mL
MIC ([3]; read-out: Meropenem MIC (10 μg ml^−1 2)): ≤ 0.25 µg/mL
MIC ([3]; read-out: Meropenem MIC (25 μg ml^−1 2)): ≤ 0.25 µg/mL
MIC (K. pneumoniae Ecl8 pSU18; ECL8PSU18, read-out: Meropenem MIC): ≤ 0.25 µg/mL
MIC (K. pneumoniae Ecl8 pSU18; ECL8PSU18, read-out: Meropenem MIC (10 μg ml^−1 2)): ≤ 0.25 µg/mL
MIC (K. pneumoniae Ecl8 pSU18; ECL8PSU18, read-out: Meropenem MIC (25 μg ml^−1 2)): ≤ 0.25 µg/mL

O=C(O)c1cccc2c1O[B-](O)(O)[C@@H](NC(=O)C1CCCCC1)C2 [compound 1]
pIC50 (BcII): 5.1
IC50 (BcII; 10 min preincubation): 7.27 µM
pIC50 (VIM-2): 7.3
IC50 (VIM-2; 10 min preincubation): 0.051 µM
pIC50 (IMP-1): 4.6
pIC50 (NDM-1): 5.7
IC50 (NDM-1; 10 min preincubation): 2.04 µM
pIC50 (SPM-1): 4.6
IC50 (SPM-1; 10 min preincubation): 24.1 µM
pIC50 (CphA): 5.3
IC50 (CphA; 10 min preincubation): 4.42 µM
pIC50 (TEM-1): 8.9
IC50 (TEM-1; 10 min preincubation): 0.001 µM
pIC50 (OXA-10): 6.4
IC50 (PBP 3): > 100 µM
cytotoxicity (HEK293 cells): Neither 1 nor 2 showed cytotoxicity
